From PubChem BioAssay AID1159558 (GlaxoSmithKline (GSK), 2015)
pIC50: −log10 of the molar value. Calls of active or inactive are those of the source.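 How the source made its calls: active means IC50 against T. cruzi CYP51 below a set limit; inactive means the rest.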

Each compound was assayed against Sterol 14-alpha demethylase (Trypanosoma cruzi (strain CL Brener)) (UniProt Q7Z1V1) (assay: TcCYP51 inhibitors, dose response, mechanism study for T. cruzi antiparasitic project, biochemical, recombinant enzyme (AID 1159558;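 further: enzyme in bacterial membranes with Anopheles gambiae CYP reductase and cytochrome b5 partners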)). Conditions: recombinant T. cruzi CYP51, BOMCC fluorescence.
Sterol 14-alpha demethylase (Trypanosoma cruzi (strain CL Brener)), sequence (Q7Z1V1 whole entry, looked up): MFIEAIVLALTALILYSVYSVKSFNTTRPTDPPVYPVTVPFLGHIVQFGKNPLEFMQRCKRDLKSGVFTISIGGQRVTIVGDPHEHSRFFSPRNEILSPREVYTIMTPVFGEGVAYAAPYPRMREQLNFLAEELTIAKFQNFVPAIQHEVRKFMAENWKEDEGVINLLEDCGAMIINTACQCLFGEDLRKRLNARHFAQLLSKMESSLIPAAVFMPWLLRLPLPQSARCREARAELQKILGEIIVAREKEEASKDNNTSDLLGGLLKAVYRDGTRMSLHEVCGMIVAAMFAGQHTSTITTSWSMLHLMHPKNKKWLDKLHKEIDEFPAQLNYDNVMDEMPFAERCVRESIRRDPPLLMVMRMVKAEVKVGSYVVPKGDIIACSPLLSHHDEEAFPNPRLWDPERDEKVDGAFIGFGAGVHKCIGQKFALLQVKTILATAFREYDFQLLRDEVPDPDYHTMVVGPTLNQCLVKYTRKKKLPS

| Compound | pIC50 | IC50 |
| --- | --- | --- |
| Cn1c(CN2CCN(c3ncc(C(F)(F)F)cc3Cl)CC2)nc2ccncc21 | 7.10 | – |
| CN(Cc1ccccc1)Cc1nnnn1C1CCN(Cc2ccc(-n3ccnc3)cc2)CC1 | 7.30 | – |
| CC1(Oc2cncc(Cl)c2)CCN(Cc2cc3ccccc3[nH]2)C1 (centres undefined) | 5.00 | – |
| O=C(c1ccccc1)N1CCC(C(=O)N2CCC(Oc3ccccc3Cl)CC2)CC1 | 4.70 | – |
| CCc1cccc(CC)c1-n1c(SCC(=O)N2CC(=O)Nc3ccccc32)nnc1-c1cccnc1 | 5.49 | – |
| COc1cc(Nc2nccc(Nc3onc(C)c3C)n2)cc(S(=O)(=O)C2CCOCC2)c1 | 5.10 | – |
| COc1cccc(S(=O)(=O)Nc2ccc3c(c2)CC(N2CCC(NC(=O)C4CC4)CC2)C3)c1 (centres undefined) | 4.20 | – |
| O=C(C1CCCCC1)N1CCN(c2nnc(-c3ccccc3)c3ccccc23)CC1 | – | > 100 µM (inactive) |
| CC(C)(C)C(=O)Nc1cc(C2CC2)nn1-c1nc2c(c(=O)[nH]1)CCCC2 | – | > 100 µM (inactive) |
| CCOc1cc(NCCCN2CCN(C)CC2)c2ncccc2c1 | – | > 100 µM (inactive) |
| Cc1cc(NC(=O)CC2CCCCC2)n(-c2nc3c(c(=O)[nH]2)CCC3)n1 | – | > 100 µM (inactive) |
| Cn1cc(CN2CCN(c3ccc4c(c3)CCN(C(=O)[C@H]3C[C@@H]3c3ccccc3)CC4)CC2)cn1 | 4.80 | – |
| Cc1cc(Br)cc(C(=O)c2c(C(C)C)c(=O)[nH]c(=O)n2Cc2ccnc(N)c2)c1 | 7.80 | – |
| CCOc1ccc(Nc2ccc(S(=O)(=O)N3CCN(C)CC3)cc2[N+](=O)[O-])cc1OCC | 4.49 | – |
| N#Cc1c(Oc2cccc(Cl)c2)cccc1[N+](=O)[O-] | – | > 100 µM (inactive) |
| COc1ccc2ncc(=O)n(CCN3CCOC(CNCc4ccc(C(F)(F)F)cc4F)C3)c2n1 (centres undefined) | 5.00 | – |
| CC(C)(C)Nc1nc(Nc2ccc3c(c2)CS(=O)(=O)C3)nc2[nH]ccc12 | 4.60 | – |

More lines, now with the values ahead:

| pIC50 | IC50 | Compound |
| --- | --- | --- |
| – | > 100 µM (inactive) | CCC(=O)Nc1ccc(-c2nc3ccc(Cl)cc3[nH]2)cc1 |
| 4.70 | – | Cc1ccc(NC(=O)c2ccc([N+](=O)[O-])s2)cc1S(=O)(=O)N1CCOCC1 |
| 5.49 | – | CS(=O)(=O)c1cccc(-c2cnc(N)c3c(-c4ccc(CO)cc4)csc23)c1 |
| – | > 100 µM (inactive) | Cc1nn(-c2nc(N)nc(-c3ccccn3)n2)c(N)c1-c1ccccc1 |
| 4.60 | – | N#Cc1ccc(C(=O)Nc2cccc(-c3cccc(CN4CCC(O)CC4)c3)c2)cc1 |
| – | > 100 µM (inactive) | Cc1cc(N2CCc3ccccc3C2)nc(Nc2ccc(S(=O)(=O)N3CCOCC3)cc2)n1 |
| 4.30 | – | COCCn1cnc2cc(NC(=O)C3CCCCC3)cc(C(=O)N3CCc4sccc4C3)c21 |
| 5.30 | – | Cc1nc(-c2ccc3c(c2)OCO3)sc1C(=O)NCc1ccc2c(c1)OCO2 |
| 4.70 | – | O=C(c1cccc(Nc2ncc(-c3ccc4c(c3)OCO4)cn2)c1)N1CCOCC1 |
| 5.10 | – | CN(CC1CCCO1)S(=O)(=O)c1ccc(C(=O)Nc2nc(-c3ccccn3)cs2)cc1 (centres undefined) |
| 7.80 | – | O=c1[nH]ccc2ccc(-c3ccncc3)cc12 |
| 4.20 | – | COc1ccc(C2CC(c3ccccc3Cl)=NN2C(=O)CNC(=O)C2CCCC2)cc1 (centres undefined) |
| 5.00 | – | Cc1ccccc1NS(=O)(=O)c1ccc2[nH]cc(C(=O)NC3CCCCC3)c(=O)c2c1 |
| – | > 100 µM (inactive) | COc1ccc([N+](=O)[O-])cc1NC(=O)Nc1cccc(Cl)c1 |
| – | > 100 µM (inactive) | COc1ccc(-c2cc(C)no2)cc1S(=O)(=O)Nc1ccc(F)c(Cl)c1 |
| 5.00 | – | COc1ccc(C2C3CCCCC3(O)CCN2CC(=O)Nc2ccc(Cl)cc2Cl)cc1 (centres undefined) |
| – | > 100 µM (inactive) | COc1ccccc1C(=O)Nc1nnc(-c2ccc3c(c2)OCO3)s1 |
| 4.40 | – | Cc1ccc2onc(Nc3ccnc(Nc4cccc(S(C)(=O)=O)c4)n3)c2c1 |
| 7.10 | – | O=C(CSc1ccc(F)cc1)N[C@@H](Cc1cnc[nH]1)C(=O)NCCc1ccccc1 |
| 4.40 | – | CS(=O)(=O)c1ccc(Nc2nccc(Nc3n[nH]c4ccc(F)cc34)n2)c(F)c1 |
| 7.00 | – | Cc1cc2cncn2c(C2CCCCN2C(=O)c2cccs2)n1 (centres undefined) |
| – | > 100 µM (inactive) | COc1ccc(-c2nc3ncccc3o2)cc1NC(=O)c1cccs1 |
